From patent publication US11648208B2, “Nano complex comprising a nano drug delivery matrix; and a ginseng extract or a ginsenoside isolated therefrom” (priority 2016, dated 2023)

Columns and labels:
[1] = Solubility for water (microscopic images, HPLC of supernatants); format: physicochemical
Text: High water solubility advantageously enhances pharmacokinetic properties such as bioavailability, membrane permeability, therapeutic activity, etc.

[2] = system: keratinocyte (HaCaT Skin); assay: Cytotoxicity by MTT assay on keratinocytes; conditions: up to a concentration of 15 μM
[3] = system: Escherichia coli [ATCC 10798]; assay: Antimicrobial activity, disk diffusion method on Muller-Hinton agar; format: cell-based; conditions: in mm
[4] = system: Vibrio parahaemolyticus [ATCC 33844]; assay: as above; format: cell-based; conditions: in mm
[5] = system: Salmonella enterica [ATCC 13076]; assay: as above; format: cell-based; conditions: in mm

In the case of `CC(C)=CCC[C@](C)(O[C@@H]1O[C@H](CO)[C@@H](O)[C@H](O)[C@H]1O)[C@H]1CC[C@]2(C)[C@@H]1[C@H](O)C[C@@H]1[C@@]3(C)CC[C@H](O)C(C)(C)[C@@H]3CC[C@]12C` [CK, ginsenoside Compound K], the solubility for water [1] was “insoluble even at a low concentration”.
In the case of `CC(C)=CCC[C@](C)(O)[C@H]1CC[C@]2(C)[C@@H]1[C@H](O)C[C@@H]1[C@@]3(C)CC[C@H](O[C@@H]4O[C@H](CO)[C@@H](O)[C@H](O)[C@H]4O)C(C)(C)[C@@H]3CC[C@]12C` [Rh2, 20(S)-protopanaxdiol-3-O-β-D-glucopyranoside], the solubility for water [1] was “insoluble even at a low concentration” and the “cytotoxicity on keratinocyte cell line” value [2] was “showed cytotoxicity”.
`CN(C)[C@@H]1C(=O)C(C(N)=O)=C(O)[C@@]2(O)C(=O)C3=C(O)c4c(O)cccc4[C@@](C)(O)[C@H]3C[C@@H]12` [Tetracyclin, tetracycline] gave a Zone of inhibition [3] of 20 ± 0.1, a Zone of inhibition [4] of 25 ± 0.6 and a Zone of inhibition [5] of 30 ± 0.3.
